Measured values: patent publication US20250213622A1 (priority 2022, published 2025)
Counter-ions that a name gives are not always drawn.

How the values were obtained:
Type in all cases: in vivo, C57BL/6J mice
[1] = system: subacute MPTP mouse model; assay: Open field test, total movement distance, subacute MPTP mouse model; settings: for Total movement distance in the open field test: Selegiline 0.5 mg/kg/d i.p.
Method: (§1) The mice were weighed and recorded, and injected subcutaneously at the back of the neck at 20 mg/kg, once a day for 5 consecutive days. Subsequent experiments were performed on the 1st, 3rd, 7th and 14th days after the last administration.
(§2) 128 healthy adult mice were randomly divided into six groups according to body weight, including normal control (Sham) group (n=20), MPTP model group (n=28), low-dose Lepalvir (10 U/kg/d) treatment group (n=20), medium-dose Lepalvir (20U/kg/d) treatment group (n=20), high-dose Lepalvir (40 U/kg/d) treatment group (n=20) and positive control drug Selegiline (0.5 mg/kg/d) treatment group (n=20). Among them, mice in the Lepalvir and Selegiline treatment groups were injected with corresponding doses intraperitoneally 1 hour after the first MPTP administration, and continued for 7 or 14 days, once a day. Mice in the MPTP model group were given an equal volume of normal saline (0.1 mL/10 g). Mice in the sham group were only given an equal volume of normal saline (0.1 mL/10 g).
(§3) Behavioral assessment was performed on the 1st, 3rd, 7th and 14th days after the last administration of MPTP.
The open field test was used to evaluate the autonomous movement ability of mouse. The open field apparatus was made of opaque blue plastic and was 60 cm×60 cm×45 cm in size. During the test, each mouse was placed into the box from the central area, and the movement trajectory of each mouse within 5 minutes was recorded at the same time. The total movement distance was calculated using software (Clever Sys Inc., VA, USA). After each mouse was tested, the open field area was wiped with 75% ethanol to prevent the smell of the previous mouse from affecting the next mouse.

[2] = system: Nissl-positive neurons in the substantia nigra pars compacta; assay: Nissl staining, neuron count in substantia nigra pars compacta, subacute MPTP mouse model; settings: for Number of Nissl-positive neurons in the substantia nigra pars compacta: Selegiline 0.5 mg/kg/d i.p.
Method: as §1, §2
(§4) On day 7 and day 14 after the last administration of MPTP respectively, half of the mice in each group were selected, anesthetized with 4% chloral hydrate, and perfused with saline +4% PFA to obtain brain tissue. After gradient dehydration in 20% (v/v) and 30% (v/v) sucrose solutions for 3 days respectively, the mouse brain tissue was embedded in OCT glue and frozen, and the Microtome Cryostat (Leica) was used to continuously slice the tissue (20 μm), and the brain slices of the relevant regions were collected, placed in freezing solution (glycerol: 0.01M PBS=1:1) and stored at −80° C. for use.
Nissl bodies are a type of basophilic substance in the cytoplasm that is widely found in various neurons, and thus the number of neurons in the relevant brain regions was calculated by Nissl staining. Staining was performed using the Nissl staining kit.
(§5) Immunohistochemical positive cells were counted using the Stereo Investigator (MBF bioscience) system and the number of Nissl body-positive cells and TH+ cells in the substantia nigra pars compacta were calculated. […]

[3] = system: subacute MPTP mouse model; assay: Rotarod test, latency, subacute MPTP mouse model; settings: for Latency time: Selegiline 0.5 mg/kg/d i.p.
Method: as §1, §2, §3
The rotarod test was used to evaluate the motor balance and limb coordination of mouse. The mouse was placed on the drum of the Rotarod tester, and the speed was set to increase uniformly from 5 rpm/min to 25 rpm/min within 2 minutes. When the mouse fell from the drum to the sensing area below, an infrared sensor would receive the signal and record the time the mouse moved on the drum of the instrument. Before the formal test, three consecutive trainings were required for each mouse. During the test, three consecutive measurements are required, and the average falling time was selected (latency).

[4] = system: TH-positive neurons in the substantia nigra pars compacta; assay: TH (tyrosine hydroxylase) staining, neuron count in substantia nigra pars compacta, subacute MPTP mouse model; settings: for Number of TH-positive neurons in the substantia nigra pars compacta: Selegiline 0.5 mg/kg/d i.p.
Method: as §1, §2, §4
TH mainly marks dopaminergic neurons in the substantia nigra pars compacta. […] The midbrain slices were obtained, washed once with 0.01 M PBS for 10 min, and then incubated with 3% H2O2 for 15 min to remove endogenous peroxidase activity. […]
as §5

[5] = system: subacute MPTP mouse model; assay: Pole climbing test (T-Turn, T-TLA), subacute MPTP mouse model; settings: Selegiline 0.5 mg/kg/d i.p.
Method: as §1, §2, §3
The pole climbing test was used to evaluate the motor coordination function of mouse. The pole used was 1 cm in diameter and 50 cm in height. A wooden ball with a diameter of 1.2 cm was fixed to the top of the pole. The pole was wrapped with anti-slip tape to prevent the mouse from slipping. The mouse was placed on the top of the pole with its head facing up. When the mouse started to […], the timer started and the time it took for the mouse to cross the top of the pole (T-Turn) from the start of the movement and the time it took for the mouse to climb down to the bottom with four paws landing on the ground from the start of the movement (T-TLA) were recoded. Before the formal test, three consecutive trainings were required for each mouse. During the test, three consecutive measurements were required, and the shortest time was selected.

[6] = positive control Selegiline 0.5 mg/kg/d, day 1, 3, 7, and 14
[7] = positive control Selegiline 0.5 mg/kg/d, day 7 and 14

C#CCN(C)[C@H](C)Cc1ccccc1 [Selegiline, Selegiline hydrochloride]
Total movement distance in the open field test ([1]; 1 day after last MPTP): 1269 ± 138 mm | Total movement distance in the open field test ([1]; 3 days after last MPTP): 1359 ± 68 mm | Total movement distance in the open field test ([1]; 7 days after last MPTP): 684 ± 68 mm | Total movement distance in the open field test ([1]; 14 days after last MPTP): 578 ± 51 mm | Effect on MPTP-induced reduction in total distance traveled (in words) [1, 6]: significantly improved | Number of Nissl-positive neurons in the substantia nigra pars compacta ([2]; Day 7 after last MPTP): 10688 ± 458 | Number of Nissl-positive neurons in the substantia nigra pars compacta ([2]; Day 14 after last MPTP): 11024 ± 539 | Effect on MPTP-induced decrease in number of Nissl-stained positive neurons (in words) [2, 7]: significantly improved | Latency time ([3]; Day 1 after last MPTP): 160.2 ± 4.8 s | Latency time ([3]; Day 3 after last MPTP): 173.1 ± 2.2 s | Latency time ([3]; Day 7 after last MPTP): 168.5 ± 3.5 s | Latency time ([3]; Day 14 after last MPTP): 166.7 ± 4.2 s | Effect on MPTP-induced shortening of rotarod latency (in words) [3, 6]: significantly improved | Number of TH-positive neurons in the substantia nigra pars compacta ([4]; Day 7 after last MPTP): 9578 ± 441 | Number of TH-positive neurons in the substantia nigra pars compacta ([4]; Day 14 after last MPTP): 9670 ± 692 | Effect on MPTP-induced decrease in number of TH-positive neurons (in words) [4, 7]: significantly improved | T-TLA ([5]; Day 1 after last MPTP): 9.23 ± 0.65 s | T-Turn ([5]; Day 1 after last MPTP): 1.57 ± 0.10 s | T-TLA ([5]; Day 3 after last MPTP): 5.96 ± 0.49 s | T-Turn ([5]; Day 3 after last MPTP): 1.35 ± 0.09 s | T-TLA ([5]; Day 7 after last MPTP): 7.61 ± 0.91 s | T-Turn ([5]; Day 7 after last MPTP): 1.49 ± 0.14 s | T-TLA ([5]; Day 14 after last MPTP): 7.90 ± 1.17 s | T-Turn ([5]; Day 14 after last MPTP): 1.49 ± 0.20 s
